The record followed here is patent US20160009686A1, “VEGFR3 INHIBITORS” (CANCER THERAPEUTICS CRC PTY LIMITED, priority 2012, published 2016).

The target in one assay is T1, FAK (Homo sapiens, UniProt Q05397).
T1 construct: endogenous in cells; host or cells: MDA-231-LNA
The experiment in a line: P397Y-FAK Inhibition MSD Platform Cellular Biomarker Assay. The assay is classed as cell-based. As to conditions: MDA-231-LNA cells, treated for 1 hour; pFAK-397 levels.

The target in another assay is T2, VEGFR2 (Homo sapiens, UniProt P35968).
T2 construct: host or cells: HUVEC
The experiment in a line: VEGFR2 Phospho ELISA Assay. It counts as cell-based. As to conditions: HUVEC, treated for 1 hour, VEGF stimulated; phospho VEGFR2 relative to Total VEGFR2. (An ELISA detects its analyte on a solid surface through an enzyme-linked reagent.)

The target in assay [1] is VEGFR3 cytoplasmic domain (Homo sapiens, UniProt P35916). The experiment in a line: VEGFR3 Biochemical Assay (AlphaScreen). As to conditions: GST-fusion enzyme, 500 μM ATP, 90 minutes at 30 degree Celsius (modified form in some cases: Hexa-His-fusion enzyme, 1 μM ATP); read-out: IC50. In general terms: Alpha assays give light when donor and acceptor beads are brought close together.

Another assay concerns the target VEGFR3 (Homo sapiens, UniProt P35916). The experiment in a line: VEGFR3 Phospho ELISA Assay. As to conditions: HMVEC-dLyAD cells, treated for 1 hour, VEGFC stimulated; phospho VEGFR3 relative to Total VEGFR3. It counts as cell-based.

pIC50: −log10 of the molar value.

VEGFR3 cytoplasmic domain, sequence (P35916 798-1298 isoform P35916-1): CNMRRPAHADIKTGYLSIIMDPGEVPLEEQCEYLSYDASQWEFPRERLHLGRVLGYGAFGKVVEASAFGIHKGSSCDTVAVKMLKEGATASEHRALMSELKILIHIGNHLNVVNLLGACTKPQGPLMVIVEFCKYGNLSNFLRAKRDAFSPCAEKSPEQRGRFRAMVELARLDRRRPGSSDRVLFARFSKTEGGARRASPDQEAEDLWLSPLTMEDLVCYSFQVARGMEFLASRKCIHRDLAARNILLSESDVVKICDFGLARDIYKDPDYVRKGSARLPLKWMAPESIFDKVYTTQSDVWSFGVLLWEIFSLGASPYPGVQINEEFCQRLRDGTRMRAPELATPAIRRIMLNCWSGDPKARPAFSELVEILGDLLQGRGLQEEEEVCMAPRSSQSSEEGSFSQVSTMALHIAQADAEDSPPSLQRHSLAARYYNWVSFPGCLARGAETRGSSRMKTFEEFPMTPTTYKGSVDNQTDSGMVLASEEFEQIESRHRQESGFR
T2 sequence (P35968 20-1356): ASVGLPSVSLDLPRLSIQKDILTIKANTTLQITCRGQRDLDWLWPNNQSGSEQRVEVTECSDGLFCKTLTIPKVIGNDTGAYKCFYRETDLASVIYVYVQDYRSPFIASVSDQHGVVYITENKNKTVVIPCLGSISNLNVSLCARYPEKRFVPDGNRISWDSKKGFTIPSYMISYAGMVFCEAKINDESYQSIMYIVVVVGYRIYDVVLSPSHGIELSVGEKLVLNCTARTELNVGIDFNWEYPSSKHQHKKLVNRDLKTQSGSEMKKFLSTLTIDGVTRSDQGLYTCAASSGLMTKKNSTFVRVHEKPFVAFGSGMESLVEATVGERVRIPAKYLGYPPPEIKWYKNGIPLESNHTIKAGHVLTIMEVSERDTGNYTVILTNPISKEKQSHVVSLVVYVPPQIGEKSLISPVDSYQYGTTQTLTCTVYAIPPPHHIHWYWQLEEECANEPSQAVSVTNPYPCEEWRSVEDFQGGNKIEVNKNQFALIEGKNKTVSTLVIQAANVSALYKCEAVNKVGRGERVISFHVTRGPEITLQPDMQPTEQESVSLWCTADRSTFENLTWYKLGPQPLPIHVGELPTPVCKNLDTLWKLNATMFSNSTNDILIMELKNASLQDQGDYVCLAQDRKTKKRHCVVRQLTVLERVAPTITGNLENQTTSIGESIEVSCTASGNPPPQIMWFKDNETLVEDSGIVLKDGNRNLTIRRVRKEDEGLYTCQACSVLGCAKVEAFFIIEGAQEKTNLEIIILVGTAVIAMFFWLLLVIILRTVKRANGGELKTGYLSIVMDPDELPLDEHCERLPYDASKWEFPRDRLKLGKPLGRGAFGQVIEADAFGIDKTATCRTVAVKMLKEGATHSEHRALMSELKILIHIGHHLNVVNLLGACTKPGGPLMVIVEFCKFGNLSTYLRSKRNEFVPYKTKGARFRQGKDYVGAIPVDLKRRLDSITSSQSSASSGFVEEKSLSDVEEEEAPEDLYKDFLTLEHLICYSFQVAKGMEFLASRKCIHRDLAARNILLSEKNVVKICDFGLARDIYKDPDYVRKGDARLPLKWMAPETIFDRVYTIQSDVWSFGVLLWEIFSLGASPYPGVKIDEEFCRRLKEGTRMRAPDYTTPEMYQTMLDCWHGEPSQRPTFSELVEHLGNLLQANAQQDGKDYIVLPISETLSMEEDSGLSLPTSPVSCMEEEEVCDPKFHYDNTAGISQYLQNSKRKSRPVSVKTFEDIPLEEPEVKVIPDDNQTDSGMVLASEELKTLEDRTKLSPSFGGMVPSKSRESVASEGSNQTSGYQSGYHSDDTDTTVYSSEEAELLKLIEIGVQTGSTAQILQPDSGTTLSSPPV
VEGFR3, sequence (P35916 25-1363): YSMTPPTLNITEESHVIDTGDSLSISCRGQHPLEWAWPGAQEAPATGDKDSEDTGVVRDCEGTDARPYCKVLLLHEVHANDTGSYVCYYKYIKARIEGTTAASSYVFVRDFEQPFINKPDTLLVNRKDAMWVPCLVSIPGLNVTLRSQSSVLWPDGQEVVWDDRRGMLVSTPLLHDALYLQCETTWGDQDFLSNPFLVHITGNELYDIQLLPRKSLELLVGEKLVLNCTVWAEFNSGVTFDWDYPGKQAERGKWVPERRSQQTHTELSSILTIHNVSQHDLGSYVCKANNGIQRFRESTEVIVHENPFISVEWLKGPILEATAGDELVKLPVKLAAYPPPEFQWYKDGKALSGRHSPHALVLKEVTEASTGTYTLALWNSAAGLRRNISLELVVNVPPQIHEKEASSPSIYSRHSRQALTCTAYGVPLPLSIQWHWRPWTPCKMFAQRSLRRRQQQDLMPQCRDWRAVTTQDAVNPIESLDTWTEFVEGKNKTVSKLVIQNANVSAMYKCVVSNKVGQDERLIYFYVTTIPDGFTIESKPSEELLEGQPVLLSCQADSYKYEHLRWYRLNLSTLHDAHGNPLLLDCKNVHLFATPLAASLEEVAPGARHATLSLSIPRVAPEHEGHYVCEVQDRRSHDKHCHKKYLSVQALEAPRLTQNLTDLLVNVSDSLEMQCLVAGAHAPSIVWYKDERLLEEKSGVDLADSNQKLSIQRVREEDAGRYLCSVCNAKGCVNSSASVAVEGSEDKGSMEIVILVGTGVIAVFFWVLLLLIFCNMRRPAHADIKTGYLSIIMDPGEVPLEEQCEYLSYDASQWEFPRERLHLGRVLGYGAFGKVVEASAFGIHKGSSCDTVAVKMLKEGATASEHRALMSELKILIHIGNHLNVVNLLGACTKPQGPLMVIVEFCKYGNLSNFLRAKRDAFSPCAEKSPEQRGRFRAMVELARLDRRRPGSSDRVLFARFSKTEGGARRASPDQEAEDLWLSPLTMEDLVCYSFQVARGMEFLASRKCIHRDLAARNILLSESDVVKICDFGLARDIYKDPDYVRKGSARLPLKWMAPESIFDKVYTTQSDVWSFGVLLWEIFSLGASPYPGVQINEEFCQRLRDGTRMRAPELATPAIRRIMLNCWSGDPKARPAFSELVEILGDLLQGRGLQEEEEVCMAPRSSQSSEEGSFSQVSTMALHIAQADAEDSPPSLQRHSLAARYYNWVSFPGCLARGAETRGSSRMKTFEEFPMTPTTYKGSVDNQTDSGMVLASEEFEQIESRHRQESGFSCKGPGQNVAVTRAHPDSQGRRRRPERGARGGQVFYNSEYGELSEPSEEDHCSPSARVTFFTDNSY
T1 sequence (Q05397 whole entry): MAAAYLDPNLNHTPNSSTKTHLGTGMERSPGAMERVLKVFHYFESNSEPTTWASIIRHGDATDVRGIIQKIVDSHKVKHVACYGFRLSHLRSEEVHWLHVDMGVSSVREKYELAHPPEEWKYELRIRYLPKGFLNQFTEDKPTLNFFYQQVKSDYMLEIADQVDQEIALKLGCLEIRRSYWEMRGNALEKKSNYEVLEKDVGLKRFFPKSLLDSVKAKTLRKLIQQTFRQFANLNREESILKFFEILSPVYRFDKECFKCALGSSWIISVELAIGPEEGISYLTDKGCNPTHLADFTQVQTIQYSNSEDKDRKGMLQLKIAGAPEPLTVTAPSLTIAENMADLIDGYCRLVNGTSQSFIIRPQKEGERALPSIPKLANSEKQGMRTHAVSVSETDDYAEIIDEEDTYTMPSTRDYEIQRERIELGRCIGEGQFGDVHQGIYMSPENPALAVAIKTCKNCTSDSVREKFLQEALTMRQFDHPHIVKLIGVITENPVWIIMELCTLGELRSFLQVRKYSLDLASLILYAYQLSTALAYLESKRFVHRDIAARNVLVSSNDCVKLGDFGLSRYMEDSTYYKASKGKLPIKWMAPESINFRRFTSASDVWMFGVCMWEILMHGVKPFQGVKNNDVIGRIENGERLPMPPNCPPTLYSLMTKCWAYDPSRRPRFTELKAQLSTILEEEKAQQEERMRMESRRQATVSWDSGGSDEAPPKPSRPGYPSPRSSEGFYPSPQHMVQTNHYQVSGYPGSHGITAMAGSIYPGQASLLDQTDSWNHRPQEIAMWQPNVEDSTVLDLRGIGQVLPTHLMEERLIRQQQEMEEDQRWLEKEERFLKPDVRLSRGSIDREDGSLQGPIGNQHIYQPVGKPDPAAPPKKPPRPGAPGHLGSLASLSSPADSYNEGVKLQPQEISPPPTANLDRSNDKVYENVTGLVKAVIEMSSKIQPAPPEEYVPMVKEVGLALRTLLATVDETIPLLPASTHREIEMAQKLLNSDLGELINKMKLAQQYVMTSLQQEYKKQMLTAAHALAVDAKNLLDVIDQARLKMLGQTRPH
Experimental for FAK: 96-well plates (cat#MA6000, Meso Scale Discovery) are coated with 30 μL/well of mouse monoclonal FAK antibody [63D5] (cat#ab72140, Abcam) pre-diluted in PBS to a concentration of 1 mg/mL. The plates are sealed with adhesive film and incubated for 16 hours at 4° C. The antibody is then flicked out of the plates and 150 μL of 3% [w/v] Blocker A (cat#R93AA-1, Meso Scale Discovery) is added. The plates are resealed with adhesive film and incubated at room temperature on a shaker set at medium speed for 2 hours. The plates are then washed three times with a solution containing 50 mM Tris-HCl pH 7.5, 0.15 M NaCl and 0.02% Tween-20, before cell lysate addition described below.
On the day prior to compound treatment, 200 μL media containing 20,000 cells is seeded into all wells of white, clear-bottom, TC treated, pclear, 96-well microtitre plates (cat#655098, Greiner Bio-One), and the plates are incubated at 37° C. and 5% CO2 for 36 hours. 1 μL/well of compound is then added from dilution series prepared in DMSO. Negative control wells receive the same volume of DMSO without compounds, and positive control wells receive 2 μM of a control compound in the same volume of DMSO. Cells are treated for 1 hour at 37° C. and 5% CO2. The media/compounds are then flicked off and 55 μL/well of ice-cold complete lysis buffer is added. […] Plates are incubated on ice for 30 minutes, with 30 seconds high speed plate shaking every 5 minutes. 40 μL/well of cell lysate is transferred to the coated, blocked and washed 96-well microtitre plates described above. The 96-well plates are sealed with adhesive film and incubated for 16 hours at 4° C. The plates are then washed three times with a solution containing 50 mM Tris-HCl pH 7.5, 0.15 M NaCl and 0.02% Tween-20 and tapped dry. […] Plates are then washed three times with a solution containing 50 mM Tris-HCl pH 7.5, 0.15 M NaCl and 0.02% Tween-20 and tapped dry. 150 μL/well of Read Buffer T+Surfactant (cat#R92TC-1, Meso Scale Discovery) is then added, and pFAK-397 levels quantified using a Meso Scale Discovery SECTOR Imager 6000 instrument.
Experimental for VEGFR2: Adult human umbilical vein endothelial cells (HUVEC) (Cat# CC-2519, Lonza) were seeded into clear-bottom, TC treated 12 well plates (Cat #665180, Greiner Bio-One) in EGM-2 (Cat# CC-3162, Lonza) at 180,000 cells/well (volume 1 mL), and the plates incubated at 37° C. and 5% CO2 for 6 hours.
96 well Maxisorp immuno plates (Cat #439454, Nunc) were coated with 100 μL of Total VEGFR2 capture antibody (Part #841434, Human Total VEGFR2/FLT4 ELISA Kit, Cat # DYC1780, R&D Systems), or Phospho VEGFR2 Capture antibody (Part #841419, Human Phospho VEGFR2/FLT4 ELISA Kit, Cat# DYC1766, R&D Systems). The plates were covered and incubated at room temperature overnight.
The coating antibody was flicked out and the plates washed three times with Wash Buffer (Phosphate buffered saline (137 mM NaCl, 2.7 nM KCl, 8.1 nM Na2HPO4, 1.5 mL KH2PO4, pH 7.2-7.4), 0.05% Tween 20). 300 μL of Blocking buffer (1% v/v BSA (Cat# A8412, Sigma) in PBS) was then added to wells and plate incubated for 2 hours at room temperature. Blocking solution is flicked out and plates washed three times and tapped dry.
Compound dilution series were prepared in EBM-2 (Cat # CC-3156, Lonza)+0.1% BSA (Cat# A8412, Sigma) with constant 0.1% DMSO concentration. 427.5 μL of sample or vehicle control was added to the cell monolayers. Cells are treated for 1 hour at 37° C. and 5% CO2. 50 ng/mL Recombinant human VEGF (Cat #293-VC, R & D Systems) added to wells and plates incubated for an additional 10 minutes at 37° C. and 5% CO2.
The media and compounds were removed and the cell monolayer washed once in Dulbecco's Phosphate Buffered Saline (Cat #21600-044, Invitrogen). 130 μL of Lysis buffer added to wells and cell lysate harvested and transferred to tubes and stored on ice. Complete lysis buffer was prepared by adding 10 μL Protease Inhibitor Cocktail (Cat # P8340, Sigma-Aldrich), 10 μL PMSF (Phenylmethanesulfonyl fluoride, Cat # P7626, Sigma-Aldrich, prepared as 500 mM DMSO stock) per 1 mL of Phosphosafe™ Extraction Reagent (Cat #71296, Merck).
The plates were then washed three times in wash buffer as described above and tapped dry.
For detection of Total VEGFR2 100 μL of Detection antibody (Total VEGFR2 Detection Antibody Part#841435 in Total VEGFR2 kit) diluted in IC Diluent #14 (20 mM Tris, 137 mM CaCl2, 0.05% Tween20, 0.1% BSA) was added to wells and the plate incubated for 2 hours at room temperature. The plate was then washed three times in wash buffer and tapped dry. 100 μL of streptavidin-HPR diluted in IC diluent #14 Streptavidin-HRP, Part #890803 in Total VEGFR2 kit) was added to wells and incubated at room temperature for 20 minutes followed by washing as described above. 100 μL Substrate solution (3,3′,5,5′-Tetramethylbenzidine (TMB) Liquid Substrate System for ELISA, Cat # T0440, Sigma-Aldrich) was added and the plate incubated for 20 minutes in the dark at room temperature followed by the addition of 50 μL stop solution (2 M H2SO4).
Total VEGFR2 levels were quantified using a Multiskan Ascent plate reader and Ascent software fitted with 450 nm filter.
For detection of Phospho VEGFR2, 100 μL of Detection antibody (Anti-Phospho-Tyrosine-HRP Detection Antibody, Part #841403 in Phospho VEGFR2 kit) was diluted in IC Diluent 14 (20 mM Tris, 137 mM CaCl2, 0.05% Tween20, 0.1% BSA), was added to the wells and the plate incubated for 2 hours at room temperature. The plate was then washed three times in wash buffer as described above and tapped dry. 100 μL Substrate solution (3,3′,5,5′-Tetramethylbenzidine (TMB) Liquid Substrate System for ELISA, Cat # T0440, Sigma-Aldrich) was added and the plate incubated for 20 minutes in the dark at room temperature followed by the addition of 50 μL stop solution (2 M H2SO4).
Phospho VEGFR2 levels were quantified using a Multiscan ascent plate reader and ascent software fitted with 450 nm filter.
IC50 values are determined by first calculating the level of phospho VEGFR2 relative to Total VEGFR2 according to the following formula:

The pIC50 is the IC50 on a negative log10 scale, so that one unit is a factor of ten. Consider `CCC(C(N)=O)c1ccccc1CCc1nc(Nc2ccc(C3CCNCC3)cc2)ncc1C(F)(F)F` (racemic) [Compound 1, 2-(2-(2-(2-((4-(Piperidin-4-yl)phenyl)amino)-5-(trifluoromethyl)pyrimidin-4-yl)ethyl)phenyl)butanamide], for which the pIC50 against FAK is 5.93.
Same read-out and setting: for `CC(C(N)=O)c1ccccc1CCc1nc(Nc2cnn(C3CCNCC3)c2)ncc1C(F)(F)F` (racemic) [Compound 56, 2-(2-(2-(2-((1-(piperidin-4-yl)-1H-pyrazol-4-yl)amino)-5-(trifluoromethyl)pyrimidin-4-yl)ethyl)phenyl)propanamide] the value was 6.29.
On to `NC(=O)C1(c2ccccc2CCc2nc(Nc3ccc(C4CNC4)cc3)ncc2C(F)(F)F)CC1` [Compound 4, 1-(2-(2-(2-((4-(azetidin-3-yl)phenyl)amino)-5-(trifluoromethyl)pyrimidin-4-yl)ethyl)phenyl)cyclopropanecarboxamide], for which the figures for the pIC50 on VEGFR2 and at FAK were 5.69 and below 5.70, respectively.
On to `CN1CCC(n2cc(Nc3ncc(Cl)c(CCc4ccccc4C4(C(N)=O)CC4)n3)cn2)C1` (stereo not drawn) [Compound 21, 1-(2-(2-(5-Chloro-2-(1-(1-methylpyrrolidin-3-yl)-1H-pyrazol-4-ylamino)pyrimidin-4-yl)ethyl)phenyl)cyclopropanecarboxamide], for which the pIC50 in assay [1] was 8.15; against VEGFR3, 7.85; at VEGFR2, 7.14.
The like results for `CC(C(N)=O)c1ccccc1CCc1nc(Nc2cn[nH]c2)ncc1Cl` (stereo not drawn) [Compound 35, 2-(2-(2-(2-(1H-Pyrazol-4-ylamino)-5-chloropyrimidin-4-yl)ethyl)phenyl)propanamide] were, in that order, 8.05, 7.19 and 5.42.
For the molecule `CC(C(N)=O)c1ccccc1CCc1nc(Nc2cnn(C)c2)ncc1Cl` (stereo not drawn) [Compound 36, 2-(2-(2-(5-Chloro-2-(1-methyl-1H-pyrazol-4-ylamino)pyrimidin-4-yl)ethyl)phenyl) propanamide], the pIC50 in assay [1] was 7.80; against VEGFR3, 7.12; on VEGFR2 it was 5.09.
The like results for `CC(C(N)=O)c1ccccc1CCc1nc(Nc2cnn(C3CCN(C)CC3)c2)ncc1Cl` (stereo not drawn) [Compound 44, 2-(2-(2-(5-Chloro-2-(1-(1-methylpiperidin-4-yl)-1H-pyrazol-4-ylamino)pyrimidin-4-yl)ethyl)phenyl)propanamide] were, in that order, 8.05, 7.28 and 6.86.
The matching figures for `Cn1cc(Nc2ncc(Cl)c(CCc3ccccc3C(C)(C)C(N)=O)n2)cn1` [Compound 45, 2-(2-(2-(5-Chloro-2-((1-methyl-1H-pyrazol-4-yl)amino)pyrimidin-4-yl)ethyl)phenyl)-2-methylpropanamide]: 8.52, 7.64 and 6.43.
As for `CC(C(N)=O)c1ccccc1CCc1nc(Nc2cnn(C)c2)ncc1C(F)(F)F` (stereo not drawn) [Compound 55, 2-(2-(2-(2-((1-Methyl-1H-pyrazol-4-yl)amino)-5-(trifluoromethyl)pyrimidin-4-yl)ethyl)phenyl) propanamide], the pIC50 in assay [1] is 7.82; against FAK, 6.94.
As for `NC(=O)C1(c2ccccc2CCc2nc(Nc3ccc(C4CCNCC4)nc3)ncc2C(F)(F)F)CC1` [Compound 68, 1-(2-(2-(2-((6-(Piperidin-4-yl)pyridin-3-yl)amino)-5-(trifluoromethyl)pyrimidin-4-yl)ethyl)phenyl)cyclopropanecarboxamide], the pIC50 is 7.55 in assay [1], 7.29 on VEGFR3 and 5.39 against VEGFR2.
